What was measured:
[1] = test system: Hepatotoxicity;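 as to HepSE bilirubinemia: bilirubinemia hepatic side effect score drawn from the DILIps training data, a prediction system for drug-induced liver injury; call rule not given here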;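 as to HepSE cholecystitis: Cholecystitis-related hepatic side effect score drawn from the DILIps (drug-induced liver injury prediction) training data set; call rule not given here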;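 as to HepSE cholelithiasis: hepatic side effect score for cholelithiasis, drawn from the DILIps training data for predicting drug-induced liver injury; call rule not given here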;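 as to HepSE cirrhosis: cirrhosis hepatic side effect score taken from the DILIps (drug-induced liver injury prediction) training set; call rule not given here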;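 as to HepSE elevated liver function tests: hepatic side effect score for raised liver function tests, as recorded in the DILIps training set used for predicting drug-induced liver injury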; as to HepSE hepatic failure: call rule not given here;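 as to HepSE hepatomegaly: hepatic side effect score for hepatomegaly, taken from the training set of the DILIps drug-induced liver injury prediction system; call rule not given here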
[2] = test system: Hepatotoxicity; remark: listed apart in the source;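 as to HepSE bilirubinemia: bilirubinemia hepatic side effect score drawn from the DILIps training data, a prediction system for drug-induced liver injury; call rule not given here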;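 as to HepSE cholecystitis: Cholecystitis-related hepatic side effect score drawn from the DILIps (drug-induced liver injury prediction) training data set; call rule not given here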;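 as to HepSE cholelithiasis: hepatic side effect score for cholelithiasis, drawn from the DILIps training data for predicting drug-induced liver injury; call rule not given here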;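 as to HepSE cirrhosis: cirrhosis hepatic side effect score taken from the DILIps (drug-induced liver injury prediction) training set; call rule not given here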;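 as to HepSE elevated liver function tests: hepatic side effect score for raised liver function tests, as recorded in the DILIps training set used for predicting drug-induced liver injury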; as to HepSE hepatic failure: call rule not given here
[3] = test system: Hepatotoxicity; remark: listed apart in the source;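 as to HepSE bilirubinemia: bilirubinemia hepatic side effect score drawn from the DILIps training data, a prediction system for drug-induced liver injury; call rule not given here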;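 as to HepSE cholecystitis: Cholecystitis-related hepatic side effect score drawn from the DILIps (drug-induced liver injury prediction) training data set; call rule not given here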;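 as to HepSE cholelithiasis: hepatic side effect score for cholelithiasis, drawn from the DILIps training data for predicting drug-induced liver injury; call rule not given here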;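 as to HepSE cirrhosis: cirrhosis hepatic side effect score taken from the DILIps (drug-induced liver injury prediction) training set; call rule not given here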;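 as to HepSE elevated liver function tests: hepatic side effect score for raised liver function tests, as recorded in the DILIps training set used for predicting drug-induced liver injury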; as to HepSE hepatic failure: call rule not given here
[4] = test system: Hepatotoxicity; remark: listed apart in the source;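 as to HepSE bilirubinemia: bilirubinemia hepatic side effect score drawn from the DILIps training data, a prediction system for drug-induced liver injury; call rule not given here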;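 as to HepSE cholecystitis: Cholecystitis-related hepatic side effect score drawn from the DILIps (drug-induced liver injury prediction) training data set; call rule not given here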;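 as to HepSE cholelithiasis: hepatic side effect score for cholelithiasis, drawn from the DILIps training data for predicting drug-induced liver injury; call rule not given here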;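 as to HepSE cirrhosis: cirrhosis hepatic side effect score taken from the DILIps (drug-induced liver injury prediction) training set; call rule not given here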;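 as to HepSE elevated liver function tests: hepatic side effect score for raised liver function tests, as recorded in the DILIps training set used for predicting drug-induced liver injury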; as to HepSE hepatic failure: call rule not given here
[5] = test system: Hepatotoxicity; remark: listed apart in the source; as to HepSE hepatic failure: call rule not given here
[6] = test system: Hepatotoxicity; remark: listed apart in the source; as to HepSE hepatic failure: call rule not given here
[7] = test system: Hepatotoxicity; remark: listed apart in the source
[8] = test system: Hepatotoxicity; remark: listed apart in the source
[9] = test system: Hepatotoxicity; remark: listed apart in the source
[10] = test system: Hepatotoxicity; remark: listed apart in the source
[11] = test system: Hepatotoxicity; remark: listed apart in the source
[12] = test system: Hepatotoxicity; remark: listed apart in the source
[13] = test system: Hepatotoxicity; remark: listed apart in the source
[14] = test system: Hepatotoxicity; remark: listed apart in the source

Row | Compound | HepSE_bilirubinemia [1] | HepSE_cholecystitis [2] | HepSE_cholelithiasis [3] | HepSE_cirrhosis [4] | HepSE_elevated liver function tests [5] | HepSE_hepatic failure [6] | HepSE_hepatic necrosis [7] | HepSE_hepatitis [8] | HepSE_hepatomegaly [9] | HepSE_jaundice [10] | HepSE_liver disease [11] | HepSE_liver fatty [12] | HepSE_liver function tests abnormal [13] | HepSE_Combined Scores [14] | further results
1 | Nc1nc(Cl)nc2c1ncn2[C@@H]1O[C@H](CO)[C@@H](O)[C@@H]1F [CLOFARABINE] | 1 | 0 | 0 | 0 | 0 | 0 | 0 | 0 | 1 | 1 | 0 | 0 | 0 | 3 | 
2 | CCCCN1C[C@H](O)[C@@H](O)[C@H](O)[C@H]1CO | 0 | 0 | 0 | 0 | 0 | 0 | 0 | 0 | 0 | 0 | 0 | 0 | 0 | 0 | 
3 | Nc1ccc(O)c(C(=O)O)c1 [MESALAMINE] | 0 | 1 | 1 | 1 | 1 | 1 | 1 | 1 | 0 | 1 | 0 | 0 | 0 | 8 | 
4 | CC(=O)[C@@]1(O)CC[C@H]2[C@@H]3C[C@H](C)C4=CC(=O)CC[C@]4(C)[C@H]3CC[C@@]21C |  |  |  |  |  |  |  |  |  |  |  |  |  |  | HepSE_bilirubinemia ([1]; Liver): 0; HepSE_cholecystitis ([2]; Liver): 0; HepSE_cholelithiasis ([3]; Liver): 1; HepSE_cirrhosis ([4]; Liver): 0; HepSE_elevated liver function tests ([5]; Liver): 0; HepSE_hepatic failure ([6]; Liver): 1; HepSE_hepatic necrosis ([7]; Liver): 0; HepSE_hepatitis ([8]; Liver): 1; HepSE_hepatomegaly ([9]; Liver): 1; HepSE_jaundice ([10]; Liver): 1; HepSE_liver disease ([11]; Liver): 0; HepSE_liver fatty ([12]; Liver): 0; HepSE_liver function tests abnormal ([13]; Liver): 0; HepSE_Combined Scores ([14]; Liver): 5
5 | CO[C@H]1/C=C/O[C@@]2(C)Oc3c(C)c(O)c4c(O)c(c(/C=N/N5CCN(C6CCCC6)CC5)c(O)c4c3C2=O)NC(=O)/C(C)=C\C=C\[C@H](C)[C@H](O)[C@@H](C)[C@@H](O)[C@@H](C)[C@H](OC(C)=O)[C@@H]1C [RIFAPENTINE] | 1 | 0 | 0 | 0 | 0 | 0 | 0 | 1 | 0 | 0 | 0 | 0 | 0 | 2 | 
6 | CCN[C@H]1C[C@H](C)S(=O)(=O)c2sc(S(N)(=O)=O)cc21 [DORZOLAMIDE] | 0 | 0 | 0 | 0 | 0 | 0 | 0 | 0 | 1 | 0 | 0 | 0 | 0 | 1 | 
7 | O=c1n(CCCN2CCN(c3cccc(Cl)c3)CC2)nc2ccccn12 [TRAZODONE] | 1 | 0 | 0 | 0 | 0 | 0 | 0 | 0 | 0 | 1 | 0 | 0 | 0 | 2 | 
8 | CC(C)Nc1cccnc1N1CCN(C(=O)c2cc3cc(NS(C)(=O)=O)ccc3[nH]2)CC1 [DELAVIRDINE] | 1 | 0 | 0 | 0 | 0 | 1 | 0 | 1 | 1 | 1 | 0 | 0 | 0 | 5 | 
9 | OC(CCN1CCCC1)(c1ccccc1)C1CCCCC1 (configuration not stated) [PROCYCLIDINE] | 0 | 0 | 0 | 0 | 0 | 0 | 0 | 0 | 0 | 0 | 0 | 0 | 0 | 0 | 
10 | GADOBUTROL | 0 | 0 | 0 | 0 | 0 | 0 | 0 | 0 | 0 | 0 | 0 | 0 | 0 | 0 | 
11 | Nc1cc(N2CCCCC2)nc(N)[n+]1[O-] [MINOXIDIL] | 0 | 0 | 0 | 0 | 0 | 0 | 0 | 0 | 0 | 0 | 0 | 0 | 0 | 0 | 
12 | CC(C)NCC(O)COc1ccc(COCCOC(C)C)cc1 (configuration not stated) [BISOPROLOL] | 0 | 0 | 0 | 0 | 0 | 0 | 0 | 0 | 0 | 0 | 0 | 0 | 0 | 0 | 
13 | C[C@H](/C=C/[C@H](C)C(C)(C)O)[C@H]1CC[C@H]2/C(=C/C=C3C[C@@H](O)C[C@H](O)C3)CCC[C@]12C [PARICALCITOL] | 0 | 0 | 0 | 0 | 0 | 0 | 0 | 0 | 0 | 0 | 0 | 0 | 0 | 0 | 
